# Experimental data as given in US12466784B2, “Analogs of pterostilbene amino acid bearing carbonates for treating a non-alcoholic fatty liver disease and nonalcoholic steatohepatitis” (APICAL MOLECULAR BIOTECH CO., LTD., priority 2020, dated 2025).
# Where “and” joins values, the source holds several entries; their conditions need not be identical. Identical values can stand only once.
# Legend:
# [1] = tested on: hepatic steatosis induced by MCD diet; test: Histological examination (H&E stain) of liver of MCD diet mice; assay type: in vivo, Male C57BL/6 mice
# Description: (§1) Animals and experimental protocol: Male C57BL/6 mice, 4 weeks of age, were purchased from Laboratory Animal Center (Taiwan, China) were maintained under the procedures and guidelines provided by the Institutional Animal Care and Use Committee of the Health Research Institutes (Taiwan, China). They were maintained with free access to pellet food and water in stainless-steel cages at a temperature of 21±2° C. with a 12 h light/dark cycle.
# (§2) Mice were randomly divided into five groups and treated as follows: (1) MCD diet+PG/TPSG (2) MCD diet+100 mg/kg all compounds. After 28 days, animals were sacrificed for the collection of blood for determination of plasma ALT and AST concentrations, and liver samples for H&E stain.
# (§3) After 28 days, animals were sacrificed for the collection of blood for determination of plasma ALT and AST concentrations, and liver samples for H&E stain.
# MCD diet NASH mice = test: Serum AST and ALT of compounds treated-NASH mice (MCD diet); assay type: in vivo, Male C57BL/6 mice; details: MCD diet mice, 100 mg/kg oral, PG/TPSG (1:1)
# Description: as §1, §2, §3
# [2] = In vitro stability in pH 1.2 solution (USP Gastric fluid without enzymes); details: 37° C.
# Description: Sample collection: At 0, 0.17, 0.5, 1, 2, 4 and 6 h, 100 mL of aliquots were taken from the incubation mixture and placed into centrifuge tubes containing 100 μL of ice-cold acetonitrile and 1 μm internal standard where the reaction was terminated.
# [3] = score per animal, MCD diet mice, 100 mg/kg oral, PG/TPSG (1:1)
compound,measurement,setting,value
"CCOc1cc(/C=C/c2ccc(OC(=O)OCCNC(=O)CN)cc2)cc(OCC)c1.Cl [Compound 6b, (E)-2-(2-aminoacetamido)ethyl (4-(3,5-diethoxystyryl)phenyl) carbonate hydrochloride]","effect on MCD diet-induced steatohepatitis (H&E staining), in words","[1]; MCD diet mice, 100 mg/kg oral",prevented MCD diet-induced steatohepatitis
same,Avg,"[1]; average of Scores of the group, 100 mg/kg oral, PG/TPSG (1:1)",7.00
same,Steatosis,"[1]; score per animal, MCD diet mice, 100 mg/kg oral once daily, 5 times a week, in PG/TPSG (1:1), hydrochloride, 100 mg/kg",3 (2×) and 2 (2×)
same,Ballooning,[1]; [3],2
same,Fibrosis,[1]; [3],0
same,Inflammation,"[1]; score per animal, MCD diet mice, 100 mg/kg oral, PG/TPSG (1:1), hydrochloride, 100 mg/kg",3 (2×) and 2 (2×)
same,Sum,"[1]; sum of Scores of the 4 animals of the group, 100 mg/kg oral, PG/TPSG (1:1)",28
same,Scores,"[1]; total score per animal, MCD diet mice, 100 mg/kg oral, PG/TPSG (1:1), hydrochloride, 100 mg/kg",8 (2×) and 6 (2×)
same,Serum ALT (U/L),MCD diet NASH mice,454.38 U/L
same,Serum AST (U/L),MCD diet NASH mice,408.75 U/L
same,compound remaining in pH = 1.2 solution (%),[2]; Time 0 h,100.0%
same,compound remaining in pH = 1.2 solution (%),[2]; Time 0.167 h,130.5%
same,compound remaining in pH = 1.2 solution (%),[2]; Time 0.5 h,103.9%
same,compound remaining in pH = 1.2 solution (%),[2]; Time 1 h,111.7%
same,compound remaining in pH = 1.2 solution (%),[2]; Time 2 h,97.9%
same,compound remaining in pH = 1.2 solution (%),[2]; Time 4 h,99.2%
